Data on four compounds can be found in ChEMBL document CHEMBL4130413, “1-Aryl-1H- and 2-aryl-2H-1,2,3-triazole derivatives blockade P2X7 receptor in vitro and inflammatory response in vivo” (Eur J Med Chem, 2017).

The target in series [1] is T1, UDP-glucuronosyltransferase 2B15 (Homo sapiens, UniProt P54855).
T1 sequence (P54855 whole entry): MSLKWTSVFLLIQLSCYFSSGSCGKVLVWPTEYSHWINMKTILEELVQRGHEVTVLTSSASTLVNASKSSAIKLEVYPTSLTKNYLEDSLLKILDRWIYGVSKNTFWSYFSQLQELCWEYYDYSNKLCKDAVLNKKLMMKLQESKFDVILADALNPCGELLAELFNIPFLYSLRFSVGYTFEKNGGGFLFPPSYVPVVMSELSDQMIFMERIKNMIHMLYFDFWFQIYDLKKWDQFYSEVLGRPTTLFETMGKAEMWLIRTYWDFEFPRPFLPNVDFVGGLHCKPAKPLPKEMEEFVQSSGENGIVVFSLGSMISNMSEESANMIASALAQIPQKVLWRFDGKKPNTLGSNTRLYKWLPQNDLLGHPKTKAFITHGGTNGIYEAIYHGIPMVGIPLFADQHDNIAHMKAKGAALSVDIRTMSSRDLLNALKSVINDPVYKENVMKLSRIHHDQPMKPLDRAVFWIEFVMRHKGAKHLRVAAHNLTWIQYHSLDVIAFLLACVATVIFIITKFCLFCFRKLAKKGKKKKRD
The series is described as follows: Drug metabolism assessed as UGT2B15 (unknown origin)-mediated metabolite formation. The class given is ADME.

In series [2] the target is T2, UDP-glucuronosyltransferase 1A4 (Homo sapiens, UniProt P22310).
T2 sequence (P22310 whole entry): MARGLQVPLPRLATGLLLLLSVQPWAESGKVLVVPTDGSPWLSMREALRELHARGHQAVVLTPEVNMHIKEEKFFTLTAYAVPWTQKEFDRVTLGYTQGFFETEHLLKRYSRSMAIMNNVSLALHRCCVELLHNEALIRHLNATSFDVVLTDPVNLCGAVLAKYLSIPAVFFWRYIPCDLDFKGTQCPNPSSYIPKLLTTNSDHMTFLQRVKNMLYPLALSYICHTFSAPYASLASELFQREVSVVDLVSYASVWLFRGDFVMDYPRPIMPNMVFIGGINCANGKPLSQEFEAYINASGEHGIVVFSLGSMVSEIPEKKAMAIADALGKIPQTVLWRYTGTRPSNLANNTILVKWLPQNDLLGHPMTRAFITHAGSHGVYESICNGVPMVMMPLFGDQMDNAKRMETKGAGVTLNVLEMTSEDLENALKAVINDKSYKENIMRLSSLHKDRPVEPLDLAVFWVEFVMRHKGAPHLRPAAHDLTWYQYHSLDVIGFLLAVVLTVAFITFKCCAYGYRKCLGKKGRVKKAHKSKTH
The series is described as follows: Drug metabolism assessed as UGT1A4 (unknown origin)-mediated metabolite formation. It is filed as ADME.

For another series, the target named is Cytochrome P450 2C9 (Homo sapiens, UniProt P11712).
Sequence of Cytochrome P450 2C9 (P11712 whole entry): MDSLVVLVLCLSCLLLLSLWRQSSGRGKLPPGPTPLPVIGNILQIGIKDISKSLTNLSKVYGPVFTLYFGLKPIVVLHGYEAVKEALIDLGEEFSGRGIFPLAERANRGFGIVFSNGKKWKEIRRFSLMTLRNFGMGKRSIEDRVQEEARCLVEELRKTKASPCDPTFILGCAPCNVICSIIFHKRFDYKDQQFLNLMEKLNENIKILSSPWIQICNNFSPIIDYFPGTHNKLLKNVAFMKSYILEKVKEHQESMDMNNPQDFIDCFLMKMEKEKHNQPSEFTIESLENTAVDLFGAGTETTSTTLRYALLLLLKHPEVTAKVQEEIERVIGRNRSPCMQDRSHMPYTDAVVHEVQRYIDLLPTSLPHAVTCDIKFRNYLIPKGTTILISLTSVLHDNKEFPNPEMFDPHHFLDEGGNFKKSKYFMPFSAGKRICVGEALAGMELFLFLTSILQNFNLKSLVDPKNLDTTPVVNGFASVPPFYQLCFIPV
For another series, the target named is T3, Cytochrome P450 1A2 (Homo sapiens, UniProt P05177).
T3 sequence (P05177 whole entry): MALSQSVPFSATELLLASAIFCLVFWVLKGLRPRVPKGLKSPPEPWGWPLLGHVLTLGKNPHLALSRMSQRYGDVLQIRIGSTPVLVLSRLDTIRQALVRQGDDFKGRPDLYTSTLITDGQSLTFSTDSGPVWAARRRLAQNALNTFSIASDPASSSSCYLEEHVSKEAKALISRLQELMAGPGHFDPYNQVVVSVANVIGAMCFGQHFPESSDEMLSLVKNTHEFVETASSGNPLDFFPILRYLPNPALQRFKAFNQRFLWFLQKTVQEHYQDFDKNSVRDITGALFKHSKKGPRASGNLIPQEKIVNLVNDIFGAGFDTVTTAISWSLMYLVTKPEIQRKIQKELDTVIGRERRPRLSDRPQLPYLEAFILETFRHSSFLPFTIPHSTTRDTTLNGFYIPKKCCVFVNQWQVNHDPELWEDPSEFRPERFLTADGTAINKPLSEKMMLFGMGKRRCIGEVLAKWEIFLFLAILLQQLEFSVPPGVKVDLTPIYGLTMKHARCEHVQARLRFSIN

Series [3] addresses T4, UDP-glucuronosyltransferase 1A1 (Homo sapiens, UniProt P22309).
T4 sequence (P22309 whole entry): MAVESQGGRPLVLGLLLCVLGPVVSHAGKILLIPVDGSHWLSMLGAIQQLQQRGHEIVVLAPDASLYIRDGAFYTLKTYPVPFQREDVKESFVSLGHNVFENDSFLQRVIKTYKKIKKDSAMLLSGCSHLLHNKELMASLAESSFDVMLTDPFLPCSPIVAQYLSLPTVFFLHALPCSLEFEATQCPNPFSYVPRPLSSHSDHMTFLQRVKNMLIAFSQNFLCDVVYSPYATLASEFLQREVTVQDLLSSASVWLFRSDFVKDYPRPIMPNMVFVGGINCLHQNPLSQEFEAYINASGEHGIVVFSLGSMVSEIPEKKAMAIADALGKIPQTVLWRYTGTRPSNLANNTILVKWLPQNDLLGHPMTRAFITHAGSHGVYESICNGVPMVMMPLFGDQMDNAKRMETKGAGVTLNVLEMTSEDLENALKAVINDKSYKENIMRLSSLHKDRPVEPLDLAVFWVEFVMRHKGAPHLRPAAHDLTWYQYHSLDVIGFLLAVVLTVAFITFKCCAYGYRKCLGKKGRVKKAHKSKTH
The series is described as follows: Drug metabolism assessed as UGT1A1 (unknown origin)-mediated metabolite formation. The class given is ADME.

The target of series [4] is T5, UDP-glucuronosyltransferase 1A3 (Homo sapiens, UniProt P35503).
T5 sequence (P35503 whole entry): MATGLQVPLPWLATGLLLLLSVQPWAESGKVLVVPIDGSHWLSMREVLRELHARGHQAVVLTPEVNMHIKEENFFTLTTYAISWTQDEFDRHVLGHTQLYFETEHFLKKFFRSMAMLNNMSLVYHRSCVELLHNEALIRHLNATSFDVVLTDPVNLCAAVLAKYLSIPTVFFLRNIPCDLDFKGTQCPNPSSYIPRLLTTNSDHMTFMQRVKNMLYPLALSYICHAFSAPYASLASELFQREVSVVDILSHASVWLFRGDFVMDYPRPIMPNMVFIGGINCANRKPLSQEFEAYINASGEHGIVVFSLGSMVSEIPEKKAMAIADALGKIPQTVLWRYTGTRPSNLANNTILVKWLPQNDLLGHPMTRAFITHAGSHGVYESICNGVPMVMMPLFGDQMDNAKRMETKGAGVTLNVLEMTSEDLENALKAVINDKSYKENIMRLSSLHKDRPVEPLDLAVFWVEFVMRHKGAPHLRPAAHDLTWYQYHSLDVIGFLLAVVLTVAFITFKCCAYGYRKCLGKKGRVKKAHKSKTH
The series is described as follows: Drug metabolism assessed as UGT1A3 (unknown origin)-mediated metabolite formation. It is filed as ADME.

Structures are written as SMILES.

Description for Cytochrome P450 1A2: Drug metabolism assessed as CYP1A2 (unknown origin)-mediated metabolite formation
Description for Cytochrome P450 2C9: Drug metabolism assessed as CYP2C9 (unknown origin)-mediated metabolite formation

On to `CC(C)Cc1ccc(C(C)C(=O)O)cc1` (configuration not stated) [IBUPROFEN], for which the Drug metabolism result in series [1] was “Metabolite_Notdetected”; in series [2], “Metabolite_Notdetected”; on Cytochrome P450 2C9, “Metabolite_Detected”; at Cytochrome P450 1A2, “Metabolite_Notdetected”; in series [3], “Metabolite_Notdetected”; in series [4], “Metabolite_Detected”.

Regarding `COc1ccc2cc([C@H](C)C(=O)O)ccc2c1` [NAPROXEN], the Drug metabolism entry is on record as “Metabolite_Notdetected” in series [1], “Metabolite_Notdetected” in series [2], “Metabolite_Detected” in series [3] and “Metabolite_Detected” in series [4].

On to `O=C(O)Cc1ccccc1Nc1c(Cl)cccc1Cl` [DICLOFENAC], for which the Drug metabolism result is on record as “Metabolite_Notdetected” in series [1]; “Metabolite_Notdetected” in series [2]; “Metabolite_Detected” on Cytochrome P450 2C9; “Metabolite_Notdetected” on Cytochrome P450 1A2; “Metabolite_Notdetected” in series [3]; “Metabolite_Detected” in series [4].

With `CCOCc1cn(-c2ccc(Cl)cc2)nn1`, the Drug metabolism result in series [1] is listed as “Metabolite_Notdetected”; in series [2], “Metabolite_Detected”; at Cytochrome P450 2C9, “Metabolite_Notdetected”; at Cytochrome P450 1A2, “Metabolite_Detected”; in series [3] it was “Metabolite_Notdetected”; in series [4] it was “Metabolite_Notdetected”.
